Earlier results in publication PMC11676667, “Pharmacokinetics of Oral Cannabinoid Δ8-Tetrahydrocannabivarin and Its Main Metabolites in Healthy Participants” (Pharmaceuticals, 2024).
Where two headings read alike, the source gives them in different places.

Tests used:
[1] = oral MCT oil formulation, healthy participants; cited from earlier work
[2] = tested on: CB1 receptor; settings: in vitro, cited from earlier work
[3] = oral cannabis brownie; cited from earlier work

**Q.** With `CCCc1cc(O)c2c(c1)OC(C)(C)[C@@H]1CC=C(C)C[C@@H]21` [Δ8-THCV, Δ8-tetrahydrocannabivarin] as the compound, how does the safety and tolerability [1] read?
**A.** Its safety and tolerability is “safe and well tolerated”.

**Q.** For `CCCc1cc(O)c2c(c1)OC(C)(C)[C@@H]1CCC(C)=C[C@@H]21` [Δ9-THCV, Δ9-tetrahydrocannabivarin], which “CB1 receptor antagonist potency relative to Δ8-THCV” value ([2]; at low doses) is on record?
**A.** Its value is “approximately two times more potent”.

**Q.** What about the “CB1 receptor antagonist potency relative to Δ8-THCV” value [2] of the same compound?
**A.** Its value is “two-fold more potent”.

**Q.** Which Tmax [3] does the source give for `CCCc1cc(O)c2c(c1)OC(C)(C)[C@@H]1CCC(C(=O)O)=C[C@@H]21` [Δ9-THCV-COOH, 11-nor-9-carboxy-Δ9-THCV] here?
**A.** The Tmax was 3 h.
